Test results taken from US10779535B2, “Herbicidal compositions comprising 4-amino-3-chloro-5-fluoro-6-(4-chloro-2-fluoro-3-methoxyphenyl) pyridine-2-carboxylic acid or a derivative thereof and tembotrione and/or topramezone” (Dow AgroSciences LLC, priority 2017, dated 2020).

Columns and labels:
Experiment in all cases: Post-emergence foliar-applied herbicidal mixtures, greenhouse visual weed control
Assay type in all cases: in vivo
[1] = tested on: AMARE (Amaranthus retroflexus, redroot pigweed)
Excerpt: (§1) Seeds of the desired test plant species were planted in a potting media, Metro-mix 360, a peat based potting soil. Metro-mix consists of 35 to 45% specially processed coconutcoir pith, 10 to 20% horticultural grade vermiculite, 15 to 25% processed ash bark, 20 to 30% choice Canadian sphagnum peat moss and proprietary nutrients and other ingredients. When required to ensure good germination and healthy plants, a fungicide treatment and/or other chemical treatment was applied. The plants were grown for 8-16 days in a greenhouse with an approximate 14 h photoperiod which was maintained at about 29° C. during the day and 26° C. during the night. Nutrients (Peters Excel® 15-5-15 5-Ca 2-Mg and iron chelate) were applied in the irrigation solution as needed and water was added on a regular basis. Supplemental lighting was provided with overhead metal halide 1000-Watt lamps as necessary. The plants were sprayed when they reached the second through fourth true leaf stage.
(§2) Treatments consisted of the benzyl ester of 4-amino-3-chloro-5-fluoro-6-(4-chloro-2-fluoro-3-methoxy-phenyl)pyridine-2-carboxylic acid (II), formulated as an SC (suspension concentrate), GF-2978 containing 125.8 g ai/L of active ingredient, and various herbicidal components alone and in combination. The benzyl ester of formula (II) was applied on an active ingredient basis.
(§3) Other herbicidal components were applied on an active ingredient basis and included 4-hydroxyphenyl pyruvate dioxygenase (HPPD)-inhibiting herbicides tembotrione formulated as Laudis, an SC formulation containing 420 g ai/L of tembotrione, or topramezone formulated as Armezon, an SC formulation containing 335.8 g ai/L of topramezone. All treatments were applied with Prime Oil, (crop oil concentrate) at 1% v/v.
(§4) Treatment requirements were calculated based upon the rates being tested, the concentration of active ingredient or acid equivalent in the formulation, for a 30 ml volume based off of an application rate of 200 L/ha. Appropriate amounts of formulated product as calculated by the software package ARM8 (Gylling Data Management Inc.) were added to 60 ml glass vials and diluted with Indianapolis tap water and Prime Oil at 1% v/v. Treatments were applied with Generation III Research Track-Sprayer manufactured by DeVries Manufacturing in Hollandale, Minn., USA, located in building 306, room E1-483, at the Dow AgroSciences Global headquarters in Indianapolis, Ind. US. The track sprayer was calibrated to deliver 200 L/ha utilizing an 8003E even fan spray nozzle at 40 psi (276 kPa) at a speed of 2 mph (3.25 km/hr) and a spray height of 18 to 20 inches (46 to 50 cm) above average plant canopy height.
The treated plants and control plants were placed in a greenhouse as described above and watered by sub-irrigation to prevent wash-off of the test compounds. […] the untreated plants was determined visually and scored on a scale of 0 to 100 percent where 0 corresponds to no injury or growth inhibition and 100 corresponds to complete kill. The Colby method was used to determine the herbicidal effects expected from the mixtures.

[2] = tested on: ECHCG (Echinochloa crusgalli (L.) Beauv., barnyardgrass)
Excerpt: as §1, §2, §3, §4
(§5) The treated plants and control plants were placed in a greenhouse as described above and watered by sub-irrigation to prevent wash-off of the test compounds. […], the condition of the test plants as compared with that of the untreated plants was determined visually and scored on a scale of 0 to 100 percent where 0 corresponds to no injury or growth inhibition and 100 corresponds to complete kill. The Colby method was used to determine the herbicidal effects expected from the mixtures.

[3] = tested on: AMAPA (Amaranthus palmeri, Palmer amaranth)
Excerpt: as §1, §2, §3, §4, §5

[4] = tested on: IPOHE (Ipomoea hederacea (L.) Jacq., ivyleaf morningglory)
Excerpt: as §1, §2, §3, §4, §5

[5] = Compound II 0 gai/ha, Tembotrione 46 gai/ha
[6] = Compound II 15 gai/ha, Topramezone 0 gai/ha
[7] = Compound II 2.5 gai/ha, Tembotrione 0 gai/ha
[8] = Compound II 2.5 gai/ha, Topramezone 0 gai/ha
[9] = Compound II 5 gai/ha, Topramezone 0 gai/ha
[10] = Compound II 7.5 gai/ha, Topramezone 0 gai/ha
[11] = Compound II 0 gai/ha, Topramezone 24 gai/ha
[12] = Compound II 0 gai/ha, Topramezone 6 gai/ha
[13] = Compound II 0 gai/ha, Topramezone 12 gai/ha
[14] = Compound II 0 gai/ha, Topramezone 3 gai/ha

Compound: CS(=O)(=O)c1ccc(C(=O)C2C(=O)CCCC2=O)c(Cl)c1COCC(F)(F)F [Tembotrione, 2-[2-chloro-4-(methylsulfonyl)-3-[(2,2,2-trifluoroethoxy)methyl]benzoyl]-1,3-cyclohexanedione]
- Visual Weed Control (%) - 12 DAA AMARE Obs [1, 5]: 43.75%
- Visual Weed Control (%) - 5 DAA ECHCG Obs [2, 5]: 57.5%
- Visual Weed Control (%) - 12 DAA AMAPA Obs ([3]; Compound II 0 gai/ha, Tembotrione 5.75 gai/ha): 44.33%
- Visual Weed Control (%) - 12 DAA AMAPA Obs ([3]; Compound II 0 gai/ha, Tembotrione 11.5 gai/ha): 50%
- Visual Weed Control (%) - 12 DAA AMAPA Obs ([3]; Compound II 0 gai/ha, Tembotrione 23 gai/ha): 66%

Compound: COc1c(Cl)ccc(-c2nc(C(=O)OCc3ccccc3)c(Cl)c(N)c2F)c1F [Compound II, benzyl 4-amino-3-chloro-6-(4-chloro-2-fluoro-3-methoxyphenyl)-5-fluoropyridine-2-carboxylate]
- Visual Weed Control (%) - 5 DAA AMARE Obs [1, 6]: 73%
- Visual Weed Control (%) - 12 DAA AMARE Obs [1, 7]: 61.25%
- Visual Weed Control (%) - 12 DAA AMARE Obs [1, 8]: 61.25%
- Visual Weed Control (%) - 12 DAA AMARE Obs [1, 9]: 65.75%
- Visual Weed Control (%) - 12 DAA AMARE Obs ([1]; Compound II 7.5 gai/ha, Tembotrione 0 gai/ha): 75%
- Visual Weed Control (%) - 12 DAA AMARE Obs [1, 10]: 75%
- Visual Weed Control (%) - 5 DAA IPOHE Obs [4, 8]: 51.25%
- Visual Weed Control (%) - 5 DAA IPOHE Obs [4, 9]: 62.5%
- Visual Weed Control (%) - 5 DAA IPOHE Obs [4, 10]: 61.25%
- Visual Weed Control (%) - 5 DAA IPOHE Obs [4, 6]: 55.75%
- Visual Weed Control (%) - 5 DAA ECHCG Obs [2, 7]: 22.5%
- Visual Weed Control (%) - 5 DAA ECHCG Obs [2, 8]: 22.5%
- Visual Weed Control (%) - 5 DAA ECHCG Obs [2, 9]: 53.75%
- Visual Weed Control (%) - 5 DAA ECHCG Obs [2, 10]: 55%
- Visual Weed Control (%) - 5 DAA ECHCG Obs [2, 6]: 65%
- Visual Weed Control (%) - 12 DAA ECHCG Obs [2, 9]: 61.25%
- Visual Weed Control (%) - 12 DAA ECHCG Obs [2, 10]: 70.75%
- Visual Weed Control (%) - 12 DAA AMAPA Obs [3, 7]: 75%
- Visual Weed Control (%) - 12 DAA AMAPA Obs [3, 8]: 75%
- Visual Weed Control (%) - 12 DAA AMAPA Obs ([3]; Compound II 5 gai/ha, Tembotrione 0 gai/ha): 73.33%
- Visual Weed Control (%) - 12 DAA AMAPA Obs [3, 9]: 73.33%
- Visual Weed Control (%) - 12 DAA AMAPA Obs [3, 10]: 85%
- Visual Weed Control (%) - 12 DAA AMAPA Obs ([3]; Compound II 15 gai/ha, Tembotrione 0 gai/ha): 80%
- Visual Weed Control (%) - 12 DAA AMAPA Obs [3, 6]: 80%

Compound: Cc1c(C(=O)c2cnn(C)c2O)ccc(S(C)(=O)=O)c1C1=NOCC1 [Topramezone, [3-(4,5-dihydro-3-isoxazolyl)-2-methyl-4-(methylsulfonyl)phenyl](5-hydroxy-1-methyl-1H-pyrazol-4-yl)methanone]
- Visual Weed Control (%) - 5 DAA AMARE Obs [1, 11]: 50.75%
- Visual Weed Control (%) - 12 DAA AMARE Obs [1, 12]: 52.5%
- Visual Weed Control (%) - 12 DAA AMARE Obs [1, 13]: 77.5%
- Visual Weed Control (%) - 5 DAA IPOHE Obs [4, 14]: 6.25%
- Visual Weed Control (%) - 5 DAA IPOHE Obs [4, 12]: 6.25%
- Visual Weed Control (%) - 5 DAA IPOHE Obs [4, 13]: 8.75%
- Visual Weed Control (%) - 5 DAA IPOHE Obs [4, 11]: 33.25%
- Visual Weed Control (%) - 5 DAA ECHCG Obs [2, 14]: 0.75%
- Visual Weed Control (%) - 5 DAA ECHCG Obs [2, 12]: 6.25%
- Visual Weed Control (%) - 5 DAA ECHCG Obs [2, 11]: 51.25%
- Visual Weed Control (%) - 12 DAA ECHCG Obs [2, 14]: 0%
- Visual Weed Control (%) - 12 DAA ECHCG Obs [2, 12]: 1.25%
- Visual Weed Control (%) - 12 DAA ECHCG Obs [2, 13]: 36.25%
- Visual Weed Control (%) - 12 DAA AMAPA Obs [3, 14]: 86.67%
- Visual Weed Control (%) - 12 DAA AMAPA Obs [3, 12]: 75%
